These results are taken from ChEMBL document CHEMBL4342404, “Anti-cholinesterase hybrids as multi-target-directed ligands against Alzheimer's disease (1998-2018)” (Bioorg Med Chem, 2019).

For test [1], the target named is T1, Acetylcholinesterase (Electrophorus electricus, UniProt O42275). Briefly: Inhibition of electric eel AChE using acetylthiocholine iodide as substrate preincubated for 6 mins followed by substrate addition and measured up to 180 secs by Ellman's method.
The target in test [2] is T2, Cholinesterase (Equus caballus, UniProt P81908). Briefly: Inhibition of equine serum BuChE using S-butyrylthiocholine iodide as substrate preincubated for 6 mins followed by substrate addition and measured up to 180 secs by Ellman's method. In general terms: Ellman's reagent forms a yellow product with free thiols.
T2 sequence (P81908 whole entry): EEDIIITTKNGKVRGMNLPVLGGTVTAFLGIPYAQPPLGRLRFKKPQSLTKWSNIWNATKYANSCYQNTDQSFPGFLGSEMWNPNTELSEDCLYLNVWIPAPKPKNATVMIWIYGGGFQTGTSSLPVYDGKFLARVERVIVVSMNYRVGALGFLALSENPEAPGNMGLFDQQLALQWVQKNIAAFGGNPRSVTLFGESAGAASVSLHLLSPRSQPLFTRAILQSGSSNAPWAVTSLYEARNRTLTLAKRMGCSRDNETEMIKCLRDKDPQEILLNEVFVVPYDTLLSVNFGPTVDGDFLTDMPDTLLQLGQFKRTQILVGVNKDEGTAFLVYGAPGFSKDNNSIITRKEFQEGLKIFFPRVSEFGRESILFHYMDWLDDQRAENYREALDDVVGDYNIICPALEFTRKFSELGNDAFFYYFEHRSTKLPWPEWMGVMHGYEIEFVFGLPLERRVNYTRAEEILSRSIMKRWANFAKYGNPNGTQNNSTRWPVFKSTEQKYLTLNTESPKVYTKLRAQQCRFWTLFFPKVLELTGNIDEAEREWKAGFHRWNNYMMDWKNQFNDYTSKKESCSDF
The target in test [3] is T3, Acetylcholinesterase (Homo sapiens, UniProt P22303). Briefly: Inhibition of AChE (unknown origin)-induced human amyloid beta 1 to 40 aggregation at 100 uM by thioflavin-T fluorescence method relative to control.
T3 sequence (P22303 whole entry): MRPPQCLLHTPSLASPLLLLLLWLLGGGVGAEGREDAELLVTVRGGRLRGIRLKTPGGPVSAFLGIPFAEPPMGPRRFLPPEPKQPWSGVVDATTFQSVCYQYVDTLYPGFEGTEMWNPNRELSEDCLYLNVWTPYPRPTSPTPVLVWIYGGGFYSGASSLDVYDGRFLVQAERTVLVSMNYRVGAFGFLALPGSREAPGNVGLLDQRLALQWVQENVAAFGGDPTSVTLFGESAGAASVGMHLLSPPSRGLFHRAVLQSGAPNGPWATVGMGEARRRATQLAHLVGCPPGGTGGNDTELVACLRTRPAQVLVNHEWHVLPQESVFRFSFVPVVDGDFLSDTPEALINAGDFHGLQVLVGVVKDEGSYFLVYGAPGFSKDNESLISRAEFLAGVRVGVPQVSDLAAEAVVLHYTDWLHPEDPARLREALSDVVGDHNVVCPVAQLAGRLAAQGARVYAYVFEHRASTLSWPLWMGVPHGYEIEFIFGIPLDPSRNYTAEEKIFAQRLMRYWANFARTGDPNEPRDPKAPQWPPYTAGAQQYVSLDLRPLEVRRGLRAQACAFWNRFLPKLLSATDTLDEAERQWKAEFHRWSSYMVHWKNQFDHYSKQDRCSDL
Test [4] deals with T4, Cholinesterase (Homo sapiens, UniProt P06276). The test is described as follows: Inhibition of human plasma butyrylcholinesterase by Ellman's method.
T4 sequence (P06276 whole entry): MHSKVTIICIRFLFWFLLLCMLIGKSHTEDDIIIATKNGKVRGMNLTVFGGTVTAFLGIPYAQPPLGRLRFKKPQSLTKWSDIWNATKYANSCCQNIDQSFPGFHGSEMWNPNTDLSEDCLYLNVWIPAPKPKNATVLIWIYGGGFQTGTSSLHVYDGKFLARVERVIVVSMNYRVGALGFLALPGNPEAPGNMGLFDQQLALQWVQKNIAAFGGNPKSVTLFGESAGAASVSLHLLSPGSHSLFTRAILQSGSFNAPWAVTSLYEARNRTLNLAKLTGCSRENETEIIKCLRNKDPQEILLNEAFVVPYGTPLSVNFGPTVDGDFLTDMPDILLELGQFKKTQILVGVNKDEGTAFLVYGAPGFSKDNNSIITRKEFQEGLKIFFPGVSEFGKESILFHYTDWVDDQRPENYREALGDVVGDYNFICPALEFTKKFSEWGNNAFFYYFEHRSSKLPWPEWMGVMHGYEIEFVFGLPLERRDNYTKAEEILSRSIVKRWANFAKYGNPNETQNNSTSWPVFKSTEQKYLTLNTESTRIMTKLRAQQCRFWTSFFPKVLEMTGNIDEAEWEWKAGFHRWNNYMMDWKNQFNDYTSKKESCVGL
Test [5] has as its target T3, Acetylcholinesterase. Briefly: biochemical.
Description: Inhibition of human acetylcholinesterase expressed in HEK 293 cells using acetylthiocholine iodide as substrate by Ellman's method
Test [6] concerns the target Amine oxidase [flavin-containing] A (Homo sapiens, UniProt P21397).
Description: Inhibition of recombinant human MAOA expressed in baculovirus infected BTI insect cells using p-tyramine as substrate preincubated for 30 mins followed by substrate addition by Amplex red reagent/horseradish peroxidase coupled fluorescence assay
For a further test, the target named is Histamine H3 receptor (Homo sapiens, UniProt Q9Y5N1). The test is described as follows: biochemical.
Test [7] deals with Butyrylcholinesterase (Rattus norvegicus) (UniProt Q9JKC1). The test is described as follows: Inhibition of rat serum butyrylcholinesterase using butyrylthiocholine iodide as substrate at 50 uM incubated for 15 mins by Ellman's method relative to control.
Chain of Butyrylcholinesterase (Rattus norvegicus) (Q9JKC1 as listed by the source): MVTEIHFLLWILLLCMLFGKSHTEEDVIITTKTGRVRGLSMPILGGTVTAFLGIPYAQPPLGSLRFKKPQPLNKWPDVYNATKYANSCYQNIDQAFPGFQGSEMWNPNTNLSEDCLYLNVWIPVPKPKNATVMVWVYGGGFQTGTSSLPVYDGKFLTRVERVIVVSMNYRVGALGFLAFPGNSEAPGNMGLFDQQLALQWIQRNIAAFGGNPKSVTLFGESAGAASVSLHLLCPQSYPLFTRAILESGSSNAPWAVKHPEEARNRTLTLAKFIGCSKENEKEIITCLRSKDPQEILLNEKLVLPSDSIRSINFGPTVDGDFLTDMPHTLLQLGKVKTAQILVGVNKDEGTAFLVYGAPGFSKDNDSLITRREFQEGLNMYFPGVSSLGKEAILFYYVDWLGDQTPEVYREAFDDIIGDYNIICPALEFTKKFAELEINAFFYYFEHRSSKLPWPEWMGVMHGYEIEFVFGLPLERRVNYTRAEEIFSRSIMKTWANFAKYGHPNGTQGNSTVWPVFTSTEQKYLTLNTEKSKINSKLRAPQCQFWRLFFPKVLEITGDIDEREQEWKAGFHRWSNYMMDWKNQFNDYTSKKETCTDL
The target of test [8] is T1, Acetylcholinesterase. The test is described as follows: Inhibition of electric eel AChE using acetylthiocholine iodide as substrate incubated for 15 mins by Ellman's method.
In test [9] the target is Amyloid-beta precursor protein (Homo sapiens) (UniProt P05067). Briefly: Inhibition of HFIP pretreated amyloid beta (1-42) (unknown origin) self aggregation at 20 uM incubated for 48 hrs by thioflavin T based fluorescence assay relative to control.
Chain of Amyloid-beta precursor protein (Homo sapiens) (P05067 whole entry): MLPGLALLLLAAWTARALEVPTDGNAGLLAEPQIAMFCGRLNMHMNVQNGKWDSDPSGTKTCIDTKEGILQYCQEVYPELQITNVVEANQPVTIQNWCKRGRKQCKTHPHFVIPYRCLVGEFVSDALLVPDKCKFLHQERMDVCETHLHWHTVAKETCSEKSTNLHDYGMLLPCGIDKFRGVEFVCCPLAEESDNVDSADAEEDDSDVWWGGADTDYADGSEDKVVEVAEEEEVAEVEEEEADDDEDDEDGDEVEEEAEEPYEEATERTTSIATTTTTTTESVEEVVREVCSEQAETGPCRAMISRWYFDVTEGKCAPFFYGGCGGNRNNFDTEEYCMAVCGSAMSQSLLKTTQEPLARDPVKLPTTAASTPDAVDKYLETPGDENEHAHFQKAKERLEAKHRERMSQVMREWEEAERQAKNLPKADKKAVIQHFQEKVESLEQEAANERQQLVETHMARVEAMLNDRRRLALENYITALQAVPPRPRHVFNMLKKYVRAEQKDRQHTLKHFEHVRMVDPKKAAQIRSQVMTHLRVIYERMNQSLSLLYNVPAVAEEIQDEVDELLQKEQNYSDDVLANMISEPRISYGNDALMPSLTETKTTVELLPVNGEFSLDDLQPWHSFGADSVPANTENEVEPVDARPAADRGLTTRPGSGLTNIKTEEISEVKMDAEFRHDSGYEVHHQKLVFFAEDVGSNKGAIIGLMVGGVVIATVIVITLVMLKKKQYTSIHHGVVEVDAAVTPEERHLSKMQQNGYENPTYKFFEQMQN
Test [10] can be described thus: Antioxidant activity assessed as trolox equivalent of AAPH radical scavenging activity at 10 uM preincubated for 10 mins followed by APPH addition and measured every min for 120 mins by ORAC-FL assay relative to trolox. The format is functional.
The target in test [11] is T1, Acetylcholinesterase.
Description: Inhibition of electric eel AChE using acetylthiocholine iodide as substrate preincubated for 15 mins followed by substrate addition and measured after 15 mins by Ellman's method
The target in test [12] is T2, Cholinesterase.
Description: Inhibition of equine serum BuChE preincubated for 15 mins followed by substrate addition and measured after 15 mins by Ellman's method
Test [13] has as its target T5, Acetylcholinesterase (Bos taurus, UniProt P23795).
T5 sequence (P23795 whole entry): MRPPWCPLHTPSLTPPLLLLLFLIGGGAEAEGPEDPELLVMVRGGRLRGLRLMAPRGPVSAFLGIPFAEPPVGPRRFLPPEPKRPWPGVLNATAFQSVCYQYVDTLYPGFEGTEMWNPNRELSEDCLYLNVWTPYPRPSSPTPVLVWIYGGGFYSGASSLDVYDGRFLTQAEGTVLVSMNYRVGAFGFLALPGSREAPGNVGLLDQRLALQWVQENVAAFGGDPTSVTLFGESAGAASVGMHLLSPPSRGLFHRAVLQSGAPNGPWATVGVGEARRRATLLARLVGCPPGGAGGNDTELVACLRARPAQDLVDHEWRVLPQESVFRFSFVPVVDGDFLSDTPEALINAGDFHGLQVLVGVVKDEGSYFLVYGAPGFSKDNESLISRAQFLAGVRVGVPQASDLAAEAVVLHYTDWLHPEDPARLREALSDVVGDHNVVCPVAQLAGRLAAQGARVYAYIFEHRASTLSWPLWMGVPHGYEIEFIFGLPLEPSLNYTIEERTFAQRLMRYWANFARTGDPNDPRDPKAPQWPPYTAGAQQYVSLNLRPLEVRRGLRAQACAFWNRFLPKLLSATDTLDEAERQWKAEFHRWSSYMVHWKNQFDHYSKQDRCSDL
Description: Inhibition of bovine erythrocyte acetylcholinesterase using acetylthiocholine as substrate by Ellman's method

Test [14] deals with T6, Acetylcholinesterase (Rattus norvegicus, UniProt P37136).
T6 sequence (P37136 whole entry): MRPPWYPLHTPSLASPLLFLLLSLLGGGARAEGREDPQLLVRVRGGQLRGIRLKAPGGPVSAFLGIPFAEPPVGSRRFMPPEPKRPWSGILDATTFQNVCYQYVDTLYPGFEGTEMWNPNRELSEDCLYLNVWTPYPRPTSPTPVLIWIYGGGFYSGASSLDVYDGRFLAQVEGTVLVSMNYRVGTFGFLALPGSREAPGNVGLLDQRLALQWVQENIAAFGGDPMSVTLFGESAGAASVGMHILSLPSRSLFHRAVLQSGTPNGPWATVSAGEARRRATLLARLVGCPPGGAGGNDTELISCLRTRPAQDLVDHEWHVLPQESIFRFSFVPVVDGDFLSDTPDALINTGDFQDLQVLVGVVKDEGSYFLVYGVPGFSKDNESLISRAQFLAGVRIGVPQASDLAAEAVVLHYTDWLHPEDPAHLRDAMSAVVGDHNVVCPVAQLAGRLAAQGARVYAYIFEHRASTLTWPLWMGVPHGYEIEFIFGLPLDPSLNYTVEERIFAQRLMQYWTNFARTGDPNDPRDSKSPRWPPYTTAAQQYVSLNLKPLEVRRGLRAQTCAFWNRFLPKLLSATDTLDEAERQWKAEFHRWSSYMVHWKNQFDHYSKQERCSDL
Briefly: Antagonist activity at Acetylcholinesterase in Sprague-Dawley rat phrenic nerve-hemidiaphragm assessed as reversal of d-tubocurarine induced neuromuscular blockade after 15 mins. The note with it: read-out: I50.

The target of test [15] is T5, Acetylcholinesterase. This is another data set of the same source.
Description: Inhibition of bovine erythrocyte acetylcholinesterase using acetylthiocholine as substrate incubated for 15 mins by Ellman's method
Test [16] has as its system Rattus norvegicus. Briefly: In vivo inhibition of MAO-A in Sprague-Dawley rat at 26 mg/kg, po administered for 2 weeks by radioassay method relative to control. Format: functional. The note with it: 336 h.
Test [17] relates to Rattus norvegicus. The test is described as follows: In vivo inhibition of MAO-B in Sprague-Dawley rat at 26 mg/kg, po administered for 2 weeks by radioassay method relative to control. The format is functional. The note with it: 336 h.
Test [18] addresses Sodium-dependent serotonin transporter (Homo sapiens, UniProt P31645). Briefly: Inhibition of SERT (unknown origin) expressed in HEK293 cells assessed as reduction in 5-HT reuptake incubated for 30 mins followed by centrifugation for 15 secs and measured after 30 mins. The format is cell-based.
The target of test [19] is 5-hydroxytryptamine receptor 1A (Homo sapiens, UniProt P08908). The test is described as follows: Agonist activity at human 5H1A receptor expressed in HEK293 cells incubated for 60 mins by Eu-cAMP tracer based LANCE ultra cAMP assay. The format is functional, cell-based.
Chain of 5-hydroxytryptamine receptor 1A (P08908 whole entry): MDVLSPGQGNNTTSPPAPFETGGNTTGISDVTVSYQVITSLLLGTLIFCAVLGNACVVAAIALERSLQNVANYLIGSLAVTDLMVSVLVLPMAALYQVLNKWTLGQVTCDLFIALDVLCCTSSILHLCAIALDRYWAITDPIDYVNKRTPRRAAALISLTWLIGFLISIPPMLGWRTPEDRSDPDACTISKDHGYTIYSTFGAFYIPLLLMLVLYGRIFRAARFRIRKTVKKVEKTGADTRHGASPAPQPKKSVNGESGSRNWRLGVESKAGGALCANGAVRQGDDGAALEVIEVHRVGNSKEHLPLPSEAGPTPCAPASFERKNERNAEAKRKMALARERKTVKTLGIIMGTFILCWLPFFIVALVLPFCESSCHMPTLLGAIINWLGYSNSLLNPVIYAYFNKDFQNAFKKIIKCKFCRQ
Test [20] has as its target T6, Acetylcholinesterase. The test is described as follows: Inhibition of rat cortex acetylcholinesterase using acetylthiocholine iodide as substrate incubated for 20 mins by Ellman's method.
The target of test [21] is T3, Acetylcholinesterase.
Description: Inhibition of human acetylcholinesterase
For test [22], the target named is T4, Cholinesterase. Briefly: Inhibition of human butyrylcholinesterase.

In general, inhibition refers to the drop in the measured response relative to a control, in per cent. What is called Ki is the equilibrium dissociation constant of an inhibitor or competing ligand from its target. Low values mean higher affinity, high ones lower affinity. The inhibition in vivo is the relative decrease from the control value, in per cent. A higher inhibition in vivo goes with a response far below the control. The EC50 is the concentration at which the effect is half-maximal. Low values mean higher potency in that assay, high ones lower potency in that assay.

T1 sequence (O42275 whole entry): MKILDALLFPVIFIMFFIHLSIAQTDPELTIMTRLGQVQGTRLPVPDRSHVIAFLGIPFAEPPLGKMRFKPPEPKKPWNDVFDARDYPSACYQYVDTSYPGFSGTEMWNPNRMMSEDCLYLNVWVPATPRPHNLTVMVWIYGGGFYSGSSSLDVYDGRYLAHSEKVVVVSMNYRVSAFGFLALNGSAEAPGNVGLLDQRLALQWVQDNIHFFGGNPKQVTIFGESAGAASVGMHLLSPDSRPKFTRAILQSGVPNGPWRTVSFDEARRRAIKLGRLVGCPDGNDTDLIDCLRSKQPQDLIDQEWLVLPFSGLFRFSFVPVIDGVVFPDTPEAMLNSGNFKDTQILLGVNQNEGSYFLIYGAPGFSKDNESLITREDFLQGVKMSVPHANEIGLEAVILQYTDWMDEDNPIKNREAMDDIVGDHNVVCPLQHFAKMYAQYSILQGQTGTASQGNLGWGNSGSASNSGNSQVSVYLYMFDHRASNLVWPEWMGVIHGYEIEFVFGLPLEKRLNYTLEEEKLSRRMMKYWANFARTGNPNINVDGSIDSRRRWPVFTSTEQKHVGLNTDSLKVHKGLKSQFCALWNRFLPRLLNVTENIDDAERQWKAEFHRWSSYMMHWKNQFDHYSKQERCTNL
Chain of Sodium-dependent serotonin transporter (P31645 whole entry): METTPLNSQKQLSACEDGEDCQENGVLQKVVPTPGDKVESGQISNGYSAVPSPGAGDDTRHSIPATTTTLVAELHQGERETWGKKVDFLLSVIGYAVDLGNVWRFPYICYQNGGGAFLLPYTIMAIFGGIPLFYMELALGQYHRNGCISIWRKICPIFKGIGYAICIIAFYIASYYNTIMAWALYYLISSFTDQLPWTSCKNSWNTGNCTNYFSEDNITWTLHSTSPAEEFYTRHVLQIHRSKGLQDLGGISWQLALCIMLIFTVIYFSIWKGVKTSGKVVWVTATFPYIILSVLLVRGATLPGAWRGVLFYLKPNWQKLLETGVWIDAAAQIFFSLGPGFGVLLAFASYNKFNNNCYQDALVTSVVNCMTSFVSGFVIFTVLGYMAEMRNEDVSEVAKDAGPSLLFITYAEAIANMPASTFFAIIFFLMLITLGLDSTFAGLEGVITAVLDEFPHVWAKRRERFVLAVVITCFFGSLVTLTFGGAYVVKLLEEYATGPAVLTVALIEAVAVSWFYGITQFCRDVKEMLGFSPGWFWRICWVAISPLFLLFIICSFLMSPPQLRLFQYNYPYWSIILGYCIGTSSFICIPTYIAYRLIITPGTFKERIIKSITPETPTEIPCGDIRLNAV
Description for Histamine H3 receptor: Displacement of [3H]-N-alpha-methylhistamine from human H3R expressed in HEK293 cell membranes incubated for 90 mins by liquid scintillation counting method

For `O=C(NCCCCCCNc1c2c(nc3ccccc13)CCCC2)c1cc(O)c2c(c1)C(=O)c1cccc(O)c1C2=O`, the IC50 against Acetylcholinesterase [1] is 27.3 nM; on Cholinesterase [2], 200 nM. Besides, the inhibition against Acetylcholinesterase [3] worked out at 70.2%.

`C#CCN(C)Cc1cc2cc(OCCCC3CCN(Cc4ccccc4)CC3)ccc2n1C`: the values for the IC50 (against Cholinesterase [4]; against Acetylcholinesterase [5]; in test [6]) were 1.82 µM, 0.81 µM and 0.27 nM, respectively. At Histamine H3 receptor, this compound displayed a Ki of 84.2 nM.

On to `CCN(CC)Cc1ccc(/C=C/c2cnc(C)c(O)c2CO)cc1O`, for which the inhibition in test [7] is 16.7%. On Acetylcholinesterase [8], this compound came in with an IC50 of 2110 nM.

As for `Oc1ccc(/C=C/c2cc(O)c3ncccc3c2)cc1`, the inhibition in [9] was found to be 71.7%. The Ratio (umolequiv/umol) in [10] worked out at 2.18.

As for `O=C(NCCc1c[nH]c2ccccc12)c1cc(-c2ccccc2Cl)on1`, the IC50 on Acetylcholinesterase [11] came to 29.5 µM; against Cholinesterase [12], 46.1 µM.

In the case of `C/C=C1\C2C=C(C)CC1c1c(nc3ccccc3c1N)C2` (racemic), the IC50 at Acetylcholinesterase [13] worked out at 320 nM.

Regarding `CC1=C[C@@H]2Cc3nc4cc(F)ccc4c(N)c3[C@H](C1)C2` (racemic), the IC50 on Acetylcholinesterase [14] came to 8 nM; against Acetylcholinesterase [13], 85 nM.

Take `CC1=CC2Cc3nc4cc(Cl)ccc4c(N)c3C(C1)C2` (single isomer, unassigned; (+)) [HUPRINE Y]: on Acetylcholinesterase [15], the IC50 stood at 36.1 nM.

For the compound `C#CCN[C@@H]1CCc2ccc(OC(=O)N(C)CC)cc21` [LADOSTIGIL], the inhibition in vivo at 26 mg/kg worked out at 66% with Rattus norvegicus [16] and 71% in the test on Rattus norvegicus [17].

Take `N#Cc1ccc2[nH]cc(CCCCN3CCN(c4c5c(nc6ccccc46)CCC5)CC3)c2c1`: the values for the IC50 (in test [18]; at Acetylcholinesterase [20]) were 76.3 nM and 3.32 µM, respectively. The compound also showed a concentration giving a half-maximal response (EC50) in test [19] of 107 nM.

In the case of `O=C(c1ccc(OCCCc2cnc[nH]2)cc1)C1CC1` [CIPROXIFAN], the IC50 at Cholinesterase [4] stood at 77.3 µM; against Acetylcholinesterase [5], 86.1 µM.

Consider `COc1ccc2[nH]cc(CCNC(=O)CN(CCC3CCN(Cc4ccccc4)CC3)C(=O)/C=C/c3ccc(O)c(OC)c3)c2c1`, for which the IC50 against Acetylcholinesterase [21] was found to be 30.7 nM; on Cholinesterase [22], 21.8 nM.
